Assay results: PMC5394417, “Investigating the molecular mechanism of positive and negative allosteric modulators in the calcium-sensing receptor dimer” (Scientific Reports, 2017)

Biological target: T1, HA-E297A CaSR mutant (Rattus norvegicus, UniProt P48442, E297A)
T1 construct: mGluR5 signal peptide (N); expressed in transfected cells; host or cells: HEK293T
T1 sequence (P48442 20-1079 E297A): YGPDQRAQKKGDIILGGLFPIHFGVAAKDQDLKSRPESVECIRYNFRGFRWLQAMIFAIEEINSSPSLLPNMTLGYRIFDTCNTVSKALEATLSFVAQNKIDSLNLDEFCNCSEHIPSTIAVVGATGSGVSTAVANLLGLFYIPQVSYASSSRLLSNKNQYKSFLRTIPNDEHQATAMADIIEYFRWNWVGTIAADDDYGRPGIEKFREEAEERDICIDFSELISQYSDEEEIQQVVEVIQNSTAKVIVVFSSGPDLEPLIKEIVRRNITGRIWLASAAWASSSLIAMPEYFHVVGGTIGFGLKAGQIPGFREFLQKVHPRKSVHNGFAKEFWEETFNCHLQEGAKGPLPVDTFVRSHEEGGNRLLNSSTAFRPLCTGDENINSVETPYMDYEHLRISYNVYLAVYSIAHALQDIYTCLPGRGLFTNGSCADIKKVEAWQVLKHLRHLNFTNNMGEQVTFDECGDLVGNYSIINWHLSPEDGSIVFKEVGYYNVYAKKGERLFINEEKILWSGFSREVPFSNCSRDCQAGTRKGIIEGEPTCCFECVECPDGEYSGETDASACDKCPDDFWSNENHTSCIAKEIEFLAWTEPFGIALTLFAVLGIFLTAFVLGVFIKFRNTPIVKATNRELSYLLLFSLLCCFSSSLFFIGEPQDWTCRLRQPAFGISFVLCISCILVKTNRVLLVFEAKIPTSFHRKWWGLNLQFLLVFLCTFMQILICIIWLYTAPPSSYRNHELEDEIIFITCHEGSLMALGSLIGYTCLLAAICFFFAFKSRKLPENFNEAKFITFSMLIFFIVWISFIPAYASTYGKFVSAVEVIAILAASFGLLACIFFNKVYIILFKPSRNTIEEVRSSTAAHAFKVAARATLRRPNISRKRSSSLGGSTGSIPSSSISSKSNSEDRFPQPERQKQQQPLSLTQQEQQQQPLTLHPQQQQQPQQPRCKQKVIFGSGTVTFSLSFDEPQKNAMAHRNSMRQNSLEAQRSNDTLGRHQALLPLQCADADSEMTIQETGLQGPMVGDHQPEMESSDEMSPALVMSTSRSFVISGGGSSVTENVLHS
Test: IP-One assay, HEK293T transiently transfected
Format: cell-based

SMILES: [Ca+2] [Ca^2+]
- EC50 (Ca^2+ alone): 7.36 mM
- Hill coefficient ± S.E.M. (Ca^2+ alone): 3.01 ± 0.07
- Max ± S.E.M. (normalized to maximum response of WT CaSR): 130 ± 25%
